# According to the supplement of paper PMC10307832:
# Assays:
# Assay in all cases: relative viability (nuclei count vs DMSO), 5 days (fraction); higher = more cells survive
# [1] = compound: C(C(=O)C(=O)O)Br [Bromopyruvate] + Cc1nc(NC(=O)N2CCC[C@H]2C(N)=O)sc1-c1ccnc(C(C)(C)C(F)(F)F)c1 [Alpelisib] (partner 2 µM)
# How it was run: (§1)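 Five library-drug doses in √10 steps were combined with a fixed anchor-drug dose, or a single drug was given alone, by pin tool to lung cancer cell lines in 1536-well plates the day after seeding. Nuclei were stained and counted after 5 days. Relative viability is the nuclei count in treated wells over that in vehicle wells, taken as the median of duplicate plates.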
# [2] = compound: CC(O)(CS(=O)(=O)c1ccc(F)cc1)C(=O)Nc1ccc(C#N)c(C(F)(F)F)c1 [Bicalutamide] + C[C@@H](Oc1cc(-c2cnn(C3CCNCC3)c2)cnc1N)c1c(Cl)ccc(F)c1Cl [Crizotinib] (partner 1 µM)
# How it was run: as §1
# Bicalutamide + Foretinib = compound: CC(O)(CS(=O)(=O)c1ccc(F)cc1)C(=O)Nc1ccc(C#N)c(C(F)(F)F)c1 [Bicalutamide] + COc1cc2c(Oc3ccc(NC(=O)C4(C(=O)Nc5ccc(F)cc5)CC4)cc3F)ccnc2cc1OCCCN1CCOCC1 [Foretinib] (partner 0.25 µM)
# How it was run: as §1
# [3] = compound: C(C(=O)C(=O)O)Br [Bromopyruvate] + Cc1nc(Nc2ncc(C(=O)Nc3c(C)cccc3Cl)s2)cc(N2CCN(CCO)CC2)n1 [Dasatinib] (partner 0.075 µM)
# How it was run: as §1
Cell Line,relative viability ([1]; first compound 1 µM),relative viability ([1]; first compound 3.162 µM),relative viability ([1]; first compound 10 µM),relative viability ([1]; first compound 31.62 µM),relative viability ([1]; first compound 100 µM),relative viability ([2]; first compound 0.08 µM),relative viability ([2]; first compound 0.253 µM),relative viability ([2]; first compound 0.8 µM),relative viability ([2]; first compound 2.53 µM),relative viability (Bicalutamide + Foretinib; first compound 0.08 µM),relative viability (Bicalutamide + Foretinib; first compound 0.253 µM),relative viability (Bicalutamide + Foretinib; first compound 0.8 µM),relative viability (Bicalutamide + Foretinib; first compound 2.53 µM),relative viability ([3]; first compound 1 µM),relative viability ([3]; first compound 3.162 µM),relative viability ([3]; first compound 10 µM),relative viability ([3]; first compound 31.62 µM),relative viability ([3]; first compound 100 µM)
201T,1.02,0.989,0.944,0.998,1.08,1.04,0.942,1.01,1.06,1.01,1.02,0.892,1.09,0.585,0.575,0.613,0.574,0.657
A549,0.814,0.971,0.834,0.794,0.726,0.738,0.708,0.917,0.485,0.907,1.02,1.01,0.927,–,–,–,–,–
A-427,1.12,1.07,1.09,1.05,1.02,0.934,0.967,0.915,0.804,1.08,1.03,1.09,1.05,0.733,0.688,0.685,0.669,0.685
ABC-1,0.915,1.04,–,1.04,0.878,1.15,1.09,1.16,0.848,0.987,1.05,1.18,1.24,0.692,0.492,0.62,0.584,0.348
BEN,0.985,1.05,1.15,0.957,1.07,0.773,0.778,1.14,0.866,0.604,0.609,0.791,0.682,0.367,0.297,0.354,0.26,0.379
CAL-12T,1.17,1.49,1.38,1.25,0.952,0.785,0.556,0.67,0.396,1.11,1.04,1.32,1.13,0.488,0.341,0.409,0.539,0.392
COR-L23,0.771,0.849,0.9,0.665,0.405,0.678,0.552,0.703,0.449,1.04,0.981,1.12,1.02,0.604,0.514,0.631,0.449,0.13
COR-L 105,0.975,1.34,1.23,1.02,0.768,0.874,0.728,0.661,0.448,1.35,0.976,0.859,0.784,0.336,0.36,0.294,0.319,0.195
Calu-6,1.09,1.02,1.05,0.952,0.615,0.865,0.795,0.914,0.727,0.931,0.916,0.853,0.843,–,–,–,–,–
ChaGo-K-1,–,–,–,–,–,1.27,1.1,1.16,1.03,0.897,0.748,0.937,0.825,0.59,0.607,0.604,0.586,0.589
EBC-1,0.888,0.82,0.802,0.79,0.747,0.166,0.185,0.186,0.185,0.0878,0.115,0.0994,0.121,–,–,–,–,–
EKVX,0.875,0.815,1.01,0.86,0.943,0.924,0.81,1.14,0.801,0.749,0.757,0.95,0.752,0.433,0.547,0.578,0.689,0.628
EMC-BAC-2,0.658,0.771,0.897,0.747,0.826,0.781,0.716,0.904,0.586,1.02,0.867,1.02,0.928,0.317,0.34,0.449,0.297,0.334
EPLC-272H,1.05,1.17,0.941,0.806,1.04,0.947,0.898,1.01,0.833,0.606,0.841,0.817,0.679,0.354,0.309,0.462,0.374,0.455
H3255,0.765,0.647,0.86,0.856,0.783,0.963,0.845,1.05,0.719,0.901,0.827,–,0.84,0.422,0.361,0.347,0.344,0.488
HARA,0.792,0.868,1.04,0.802,0.858,0.946,1.07,1.19,1.09,0.931,0.836,1.17,0.897,0.216,0.297,0.241,0.282,0.362
HCC-15,0.929,0.947,0.962,0.852,0.8,0.82,0.767,1.01,0.882,1.04,0.952,1.12,1.02,0.654,0.633,0.606,0.744,0.541
HCC-44,0.781,0.83,0.859,0.916,0.863,0.838,0.817,0.832,0.968,–,–,–,–,–,–,–,–,–
HCC-78,0.305,0.354,0.421,0.452,0.373,0.355,0.362,0.37,0.319,0.566,0.543,0.55,0.52,0.342,0.409,0.381,0.274,0.305
HCC-366,0.494,0.403,0.503,0.519,0.41,0.599,0.473,0.698,0.328,0.937,0.842,0.919,0.995,0.614,0.672,1.01,0.643,0.585
HCC-827,1.03,0.988,0.972,1.02,0.967,0.922,0.911,0.942,0.952,1.09,0.881,1.04,1.01,0.249,0.366,0.329,0.326,0.317

Cell Line,relative viability ([1]; first compound 1 µM),relative viability ([1]; first compound 3.162 µM),relative viability ([1]; first compound 10 µM),relative viability ([1]; first compound 31.62 µM),relative viability ([1]; first compound 100 µM),relative viability ([2]; first compound 0.08 µM),relative viability ([2]; first compound 0.253 µM),relative viability ([2]; first compound 0.8 µM),relative viability ([2]; first compound 2.53 µM),relative viability (Bicalutamide + Foretinib; first compound 0.08 µM),relative viability (Bicalutamide + Foretinib; first compound 0.253 µM),relative viability (Bicalutamide + Foretinib; first compound 0.8 µM),relative viability (Bicalutamide + Foretinib; first compound 2.53 µM),relative viability ([3]; first compound 1 µM),relative viability ([3]; first compound 3.162 µM),relative viability ([3]; first compound 10 µM),relative viability ([3]; first compound 31.62 µM),relative viability ([3]; first compound 100 µM)
HOP-62,0.696,1.06,–,0.426,0.698,0.807,0.936,1.33,1,1.11,1.13,1.29,1.26,0.643,0.68,0.791,0.609,0.709
IA-LM,0.756,0.776,0.887,0.836,0.821,1.14,0.819,0.88,1.02,1.22,1.1,1.17,1.18,–,–,–,–,–
LC-2-ad,0.925,0.919,0.839,0.938,0.893,0.495,0.427,0.462,0.482,0.969,0.829,1.02,1.03,0.765,0.671,0.634,0.54,0.437
LCLC-97TM1,–,–,0.272,0.302,0.183,0.478,0.369,0.317,0.301,0.871,0.923,1.04,0.96,0.74,0.898,0.835,0.763,0.957
LCLC-103H,0.981,0.938,1.01,0.95,0.985,1.06,1.04,1,1.02,0.748,0.702,0.907,0.698,0.479,0.494,0.413,0.447,0.54
LK-2,0.565,0.991,1.14,1.16,1.22,0.252,0.209,0.2,0.225,1.44,0.992,1.63,1.32,0.284,0.328,0.322,0.336,0.317
LOU-NH91,0.764,0.732,0.721,0.775,0.868,0.726,0.681,0.766,0.744,0.969,0.79,0.963,0.96,0.592,0.535,0.61,0.58,0.558
LU99A,0.516,0.491,0.512,0.561,0.483,0.65,0.451,0.602,0.362,0.773,0.815,0.892,0.578,0.515,0.568,0.575,0.552,0.534
LXF-289,1.07,1.03,1.04,1.03,1.08,0.815,0.79,0.797,0.807,0.955,0.91,0.939,0.985,0.278,0.214,0.262,0.27,0.183
NCI-H23,0.607,0.669,0.68,0.46,0.43,0.495,0.467,0.493,0.399,0.905,0.876,1.01,0.965,0.721,0.794,1.1,0.775,1.07
NCI-H522,–,–,–,–,–,–,–,–,–,–,–,–,–,0.856,0.781,0.816,0.892,1.01
NCI-H1299,1.01,1.04,1.09,1.04,1.06,0.969,0.93,0.957,0.911,1.04,1.08,1.09,1.08,–,–,–,–,–
NCI-H1395,1.02,1.46,1.26,1.06,0.991,–,–,–,–,0.938,0.94,1.23,0.874,0.412,0.386,0.457,0.423,0.396
NCI-H1623,–,–,–,–,–,–,–,–,–,0.883,0.884,0.918,0.869,0.574,0.487,0.672,0.597,0.576
NCI-H1650,–,–,–,–,–,0.892,0.937,0.979,0.992,1.28,1.17,1.14,1.27,0.309,0.268,0.289,0.395,0.211
NCI-H1703,0.364,0.347,0.294,0.345,0.33,0.621,0.511,0.624,0.397,0.342,0.36,0.41,0.293,–,–,–,–,–
NCI-H1792,0.715,0.788,0.906,0.708,0.703,0.922,0.888,1.02,1.02,–,–,–,–,0.81,0.892,0.91,–,0.723
NCI-H1793,0.659,0.715,0.751,0.697,0.702,–,–,–,–,0.796,0.553,0.983,0.792,0.385,0.402,0.415,0.407,0.386
NCI-H2342,–,–,–,–,–,–,–,–,–,1.08,1.13,1.09,1.08,0.307,0.292,0.319,0.285,0.319
SW 900,–,–,–,–,–,–,–,–,–,1.15,0.866,1.04,1.07,0.498,0.552,0.533,0.516,0.592
